The record followed here is patent US20250114289A1, “HAIR DYE COMPOSITION” (The Procter & Gamble Company, priority 2023, published 2025).

Data set [1] can be described thus: Solubility of photochromic dyes in cosmetically acceptable solvents. The format is physicochemical. The text has this:
Thus, it is important to select a solvent that is suitable for use on human skin and hair and enables formulation of a stable hair dye composition with sufficient dye to provide good hair coloring results.

Data set [2] in a line: Activating EMR and deactivating EMR wavelengths of diarylethene photochromic dyes. The format is physicochemical. The settings on record: for peak deactivating EMR: FIG. 6; for peak activating EMR: FIG. 5. The text has this:
The activation and deactivation properties are illustrated in FIGS. 5 and 6, respectively.

Take `Cc1sc(-c2ccccc2)cc1C1=C(c2cc(-c3ccccc3)sc2C)C(F)(F)C(F)(F)C1(F)F` [DAE-0001, 3,3′-(perfluorocyclopent-1-ene-1,2-diyl)bis(2-methyl-5-phenylthiophene)]: the Max concentration in data set [1] (solvent Caprylic triglyceride) amounted to 0.66 % w/w; in data set [1] (solvent Isopropyl isostearate), 4.95 % w/w; in data set [1] (solvent Isopropyl myristate), 4.8 % w/w; in data set [1] (solvent Oleyl alcohol), 1.47 % w/w; in data set [1] (solvent Polysorbate 20) it was 0.9 % w/w; in data set [1] (solvent Polysorbate 80), 1.08 % w/w. Further, the “peak deactivating EMR” value in data set [2] is on record as 560-610 nm.
Consider `Cc1sc(-c2ccccc2)nc1C1=C(c2nc(-c3ccccc3)sc2C)C(F)(F)C(F)(F)C1(F)F` [DAE-0012, 4,4′-(perfluorocyclopent-1-ene-1,2-diyl)bis(5-methyl-2-phenylthiazole)], for which the Max concentration in data set [1] (solvent Caprylic triglyceride) came to 0.91 % w/w; in data set [1] (solvent Isopropyl isostearate) it was 2.32 % w/w; in data set [1] (solvent Isopropyl myristate), 2.25 % w/w; in data set [1] (solvent Oleyl alcohol), 0.79 % w/w; in data set [1] (solvent Polysorbate 20), 1.78 % w/w; in data set [1] (solvent Polysorbate 80), 2.20 % w/w. Besides, the “peak activating EMR” value in data set [2] is on record as 290-310 nm. Further, the “peak deactivating EMR” value in data set [2] is 510-540 nm.
In the case of `Cc1cc(C)c(C2=C(c3sc(C)cc3C)C(F)(F)C(F)(F)C2(F)F)s1` [DAE-0068, 5,5′-(perfluorocyclopent-1-ene-1,2-diyl)bis(2,4-dimethylthiophene)], the Max concentration was found to be 3.46 % w/w in data set [1] (solvent Caprylic triglyceride); 3.41 % w/w in data set [1] (solvent Isopropyl isostearate); 3.09 % w/w in data set [1] (solvent Isopropyl myristate); 1.34 % w/w in data set [1] (solvent Oleyl alcohol); 0.95 % w/w in data set [1] (solvent Polysorbate 20); 0.89 % w/w in data set [1] (solvent Polysorbate 80). Also, the “peak activating EMR” value in data set [2] is reported as 330-360 nm. Moreover, the “peak deactivating EMR” value in data set [2] is given as 410-450 nm.
